Measurements taken from the supplement of paper PMC10307832.

Columns and labels:
Assay in all cases: relative viability (nuclei count vs DMSO), 5 days (fraction); higher = more cells survive
[1] = compound: Cc1ccc2nc(NCCN)c3ncc(C)n3c2c1 + COc1cccc2cc(-c3nc([C@H]4CC[C@H](C(=O)O)CC4)n4ncnc(N)c34)[nH]c12 [OSI-027] (partner 0.5 µM)
Outline: (§1)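 Medians of duplicate plates are given as relative viability. That measure is the nuclei count in treated wells divided by the count in vehicle wells. Counts were taken on 4× images of lung cancer cell lines in 1536-well plates, 5 days after pin-tool dosing the day after seeding with one drug alone or a fixed anchor-drug dose plus five library-drug doses (not always all listed) in √10 steps.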

[2] = compound: Cc1ccc2nc(NCCN)c3ncc(C)n3c2c1 + CS(=O)(=O)N1CCN(Cc2cc3nc(-c4cccc5[nH]ncc45)nc(N4CCOCC4)c3s2)CC1 [Pictilisib] (partner 1 µM)
Outline: as §1

[3] = compound: Cc1ccc2nc(NCCN)c3ncc(C)n3c2c1 + C[C@]1(O)C[C@@H](c2nc(-c3ccc4ccc(-c5ccccc5)nc4c3)c3c(N)nccn32)C1 [Linsitinib] (partner 1 µM)
Outline: as §1

[4] = compound: Cc1ccc2nc(NCCN)c3ncc(C)n3c2c1 + Cc1cc(Nc2cc(N3CCN(C)CC3)nc(Sc3ccc(NC(=O)C4CC4)cc3)n2)n[nH]1 [Tozasertib] (partner 0.1 µM)
Outline: as §1

Row | Cell Line | relative viability ([1]; first compound 0.04 µM) | relative viability ([1]; first compound 0.1265 µM) | relative viability ([1]; first compound 0.4 µM) | relative viability ([1]; first compound 1.265 µM) | relative viability ([1]; first compound 4 µM) | relative viability ([2]; first compound 0.04 µM) | relative viability ([2]; first compound 0.1265 µM) | relative viability ([2]; first compound 0.4 µM) | relative viability ([2]; first compound 1.265 µM) | relative viability ([2]; first compound 4 µM) | relative viability ([3]; first compound 0.04 µM) | relative viability ([3]; first compound 0.1265 µM) | relative viability ([3]; first compound 0.4 µM) | relative viability ([3]; first compound 1.265 µM) | relative viability ([3]; first compound 4 µM) | relative viability ([4]; first compound 0.04 µM) | relative viability ([4]; first compound 0.1265 µM) | relative viability ([4]; first compound 0.4 µM) | relative viability ([4]; first compound 1.265 µM) | relative viability ([4]; first compound 4 µM)
1 | NCI-H2085 | 0.839 | 0.819 | 0.658 | 0.906 | 0.742 | 0.515 | 0.436 | 0.429 | 0.551 | 0.422 | 0.894 | 0.941 | 0.928 | 0.862 | 0.87 | 0.801 | 0.765 | 0.881 | 0.703 | 0.802
2 | NCI-H2087 | 0.648 | 0.595 | 0.478 | 0.703 | 0.501 | 1.05 | 0.824 | 0.816 | 0.981 | 0.984 | 1.03 | 0.963 | 0.789 | 0.992 | 0.877 | 0.282 | 0.222 | 0.288 | 0.204 | 0.179
3 | NCI-H2126 | 0.724 | 0.733 | 0.661 | 0.667 | 0.646 | 0.512 | 0.512 | 0.489 | 0.453 | 0.456 | 0.781 | 0.759 | 0.679 | 0.645 | 0.673 | 0.955 | 0.857 | 0.869 | 0.852 | 0.734
4 | NCI-H2228 | 0.589 | 0.656 | 0.617 | 0.59 | 0.719 | 0.464 | 0.592 | 0.417 | 0.272 | 0.369 | 0.642 | 0.443 | 0.587 | 0.751 | 0.44 | 0.297 | 0.266 | 0.279 | 0.224 | 0.219
5 | NCI-H2347 | 0.373 | 0.503 | 0.386 | 0.425 | 0.223 | 0.762 | 0.673 | 0.59 | 0.645 | 0.557 | 0.963 | 1 | 0.944 | 0.829 | 0.893 | 0.801 | 0.58 | 0.509 | 0.519 | 0.437
6 | NCI-H2405 | 0.694 | 0.628 | 0.686 | 0.623 | 0.636 | 0.442 | 0.443 | 0.441 | 0.511 | 0.396 | 0.942 | 0.855 | 0.928 | 1.03 | 0.763 | 0.731 | 0.723 | 0.708 | 0.639 | 0.68
7 | NCI-H3122 | 1.06 | 0.953 | 0.858 | 0.828 | 0.678 | 0.646 | 0.585 | 0.541 | 0.735 | 0.672 | 1 | 1.03 | 0.999 | 0.982 | 1.04 | 0.436 | 0.391 | 0.412 | 0.352 | 0.293
8 | PC-3 [JPC-3] | 0.776 | 0.83 | 0.734 | 0.822 | 0.767 | 0.758 | 0.752 | 0.731 | 0.725 | 0.7 | 0.962 | 0.941 | 0.924 | 0.948 | 0.947 | 0.899 | 0.821 | 0.914 | 0.848 | 0.833
9 | PC-14 | 0.882 | 0.819 | 0.979 | 0.759 | 0.388 | 0.753 | 0.736 | 0.757 | 0.481 | 0.583 | 0.962 | 0.957 | 0.947 | 0.964 | 0.9 | 0.604 | 0.524 | 0.514 | 0.481 | 0.414
10 | RERF-LC-KJ | 0.596 | 0.639 | 0.566 | 0.604 | 0.52 | 0.511 | 0.433 | 0.44 | 0.542 | 0.501 | 0.84 | 0.895 | 0.863 | 0.795 | 0.73 | 0.512 | 0.506 | 0.561 | 0.456 | 0.32
11 | SK-LU-1 | 0.371 | 0.369 | 0.376 | 0.376 | 0.361 | 0.573 | 0.507 | 0.604 | 0.562 | 0.291 | 1.18 | 1.09 | 1.12 | 1.16 | 1.04 | 0.378 | 0.373 | 0.392 | 0.339 | 0.308
12 | SK-MES-1 | 0.66 | 0.659 | 0.59 | 0.668 | 0.632 | 0.411 | 0.345 | 0.341 | 0.378 | 0.35 | 1.08 | 0.993 | 1.09 | 1.05 | 1.03 | 0.898 | 0.904 | 0.921 | 0.929 | 0.678
13 | SW 1573 | 0.737 | 0.579 | 0.711 | 0.634 | 0.409 | 0.449 | 0.577 | 0.418 | 0.507 | 0.502 | 0.928 | 0.824 | 0.883 | 0.985 | 0.821 | 0.187 | 0.177 | 0.19 | 0.214 | 0.157
